Literature values, collected in patent US20130158028A1, “USE OF STIMULATORS AND ACTIVATORS OF SOLUBLE GUANYLATE CYCLASE FOR TREATING SICKLE-CELL ANEMIA AND CONSERVING BLOOD SUBSTITUTES” (BAYER INTELLECTUAL PROPERTY GMBH, priority 2010, published 2013).

Details: repeated reports

Compound: CN1CC(=O)N2[C@H](c3ccc4c(c3)OCO4)c3[nH]c4ccccc4c3C[C@@H]2C1=O [tadalafil, (6R,12aR)-2,3,6,7,12,12a-hexahydro-2-methyl-6-(3,4-methylenedioxyphenyl)pyrazino (1′,2′:1,6) pyrido(3,4-b)indole-1,4-dione]
- incidence of back pain: increased incidence of back pain
